Data taken from patent US10087187B2, “Imidazopyridazine derivatives as PI3KB inhibitors” (Janssen Pharmaceutica NV, priority 2014, dated 2018).
Read-outs that look alike come from different tables or passages of the source.

Experiments:
PIK3Cα_h = PIK3Cα_h (Homo sapiens (Human), UniProt P42336); experiment: KINOMEscan enzyme binding assay, PIK3Cα; settings: DiscoveRx
Description: (§1) Enzyme Binding Assays (KINOMEscan®) Kinase enzyme binding affinities of compounds disclosed herein were determined using the KINOMEscan technology performed by DiscoveRx Corporation, San Diego, Calif., USA (www.kinomescan.com).

PIK3Cβ_h = PIK3Cβ_h (Homo sapiens (Human), UniProt P42338); experiment: KINOMEscan enzyme binding assay, PIK3Cβ; settings: DiscoveRx
Description: as §1, with “(www.kinomescan.com). Table A reports the obtained Kd values (nM), with the Kd being the inhibitor binding constant: […]” for “(www.kinomescan.com).”

PIK3Cδ_h = PIK3Cδ_h (Homo sapiens (Human), UniProt O00329); experiment: KINOMEscan enzyme binding assay, PIK3Cδ; settings: DiscoveRx
Description: as §1, with “(www.kinomescan.com). Table A reports the obtained Kd values (nM), with the Kd being the inhibitor binding constant: […]” for “(www.kinomescan.com).”

PIK3Cγ_h = PIK3Cγ_h (Homo sapiens (Human), UniProt P48736); experiment: KINOMEscan enzyme binding assay, PIK3Cγ; settings: DiscoveRx
Description: as §1

MTOR_h = MTOR_h (Homo sapiens (Human), UniProt P42345); experiment: KINOMEscan enzyme binding assay, MTOR; settings: DiscoveRx
Description: as §1

[1] = system: Akt phosphorylated at Ser473 in PC-3 cells; experiment: Cellular assay: phosphorylation of Akt (Ser473) in PC-3 cells, MSD ELISA; assay type: cell-based; settings: 60 min incubation with compound, read-out: IC50 pAkt_S473
In short: (§2)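 PC-3 cells cultured 24 h in DMEM/10% FCS were exposed to compound for 60 min at 37° C, with 0.3% DMSO. Lysates were analysed by MSD electrochemiluminescent sandwich ELISA using phospho-Ser473 or phospho-Thr308 capture and anti-total Akt detection antibodies. IC50 was derived by nonlinear sigmoidal fitting of % inhibition over five concentrations.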

[2] = system: Akt phosphorylated at Thr308 in PC-3 cells; experiment: Cellular assay: phosphorylation of Akt (Thr308) in PC-3 cells, MSD ELISA; assay type: cell-based; settings: 60 min incubation with compound, read-out: IC50 pAkt_Thr308
In short: as §2

Chain of PIK3Cβ_h (P42338 whole entry): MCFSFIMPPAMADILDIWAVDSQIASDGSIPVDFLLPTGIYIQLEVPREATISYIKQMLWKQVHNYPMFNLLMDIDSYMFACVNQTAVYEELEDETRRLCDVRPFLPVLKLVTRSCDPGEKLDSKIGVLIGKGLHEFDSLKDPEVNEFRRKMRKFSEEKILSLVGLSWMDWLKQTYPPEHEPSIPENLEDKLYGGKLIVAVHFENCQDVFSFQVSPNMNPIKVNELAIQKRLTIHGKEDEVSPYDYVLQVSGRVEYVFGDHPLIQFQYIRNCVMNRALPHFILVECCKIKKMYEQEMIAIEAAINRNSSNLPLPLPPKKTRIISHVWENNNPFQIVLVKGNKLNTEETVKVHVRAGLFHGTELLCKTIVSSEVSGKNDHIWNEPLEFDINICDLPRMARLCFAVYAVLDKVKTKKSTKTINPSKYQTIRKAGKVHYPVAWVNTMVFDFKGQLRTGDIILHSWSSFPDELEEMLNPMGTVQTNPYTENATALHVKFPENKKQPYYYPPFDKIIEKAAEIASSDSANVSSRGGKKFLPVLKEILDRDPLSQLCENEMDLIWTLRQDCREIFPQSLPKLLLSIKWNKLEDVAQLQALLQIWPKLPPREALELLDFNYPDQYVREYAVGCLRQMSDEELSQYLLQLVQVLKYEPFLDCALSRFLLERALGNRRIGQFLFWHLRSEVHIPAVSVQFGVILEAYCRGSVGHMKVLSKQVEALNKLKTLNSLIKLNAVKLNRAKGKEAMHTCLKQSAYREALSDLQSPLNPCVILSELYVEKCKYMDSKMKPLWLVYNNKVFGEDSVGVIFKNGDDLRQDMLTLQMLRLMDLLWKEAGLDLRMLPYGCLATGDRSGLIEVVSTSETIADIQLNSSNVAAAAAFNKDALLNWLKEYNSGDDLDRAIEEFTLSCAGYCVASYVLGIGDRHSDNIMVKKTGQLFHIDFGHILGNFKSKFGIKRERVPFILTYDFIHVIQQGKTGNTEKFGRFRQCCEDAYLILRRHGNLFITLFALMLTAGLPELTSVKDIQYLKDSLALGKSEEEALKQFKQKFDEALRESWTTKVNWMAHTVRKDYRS
Chain of PIK3Cα_h (P42336 whole entry): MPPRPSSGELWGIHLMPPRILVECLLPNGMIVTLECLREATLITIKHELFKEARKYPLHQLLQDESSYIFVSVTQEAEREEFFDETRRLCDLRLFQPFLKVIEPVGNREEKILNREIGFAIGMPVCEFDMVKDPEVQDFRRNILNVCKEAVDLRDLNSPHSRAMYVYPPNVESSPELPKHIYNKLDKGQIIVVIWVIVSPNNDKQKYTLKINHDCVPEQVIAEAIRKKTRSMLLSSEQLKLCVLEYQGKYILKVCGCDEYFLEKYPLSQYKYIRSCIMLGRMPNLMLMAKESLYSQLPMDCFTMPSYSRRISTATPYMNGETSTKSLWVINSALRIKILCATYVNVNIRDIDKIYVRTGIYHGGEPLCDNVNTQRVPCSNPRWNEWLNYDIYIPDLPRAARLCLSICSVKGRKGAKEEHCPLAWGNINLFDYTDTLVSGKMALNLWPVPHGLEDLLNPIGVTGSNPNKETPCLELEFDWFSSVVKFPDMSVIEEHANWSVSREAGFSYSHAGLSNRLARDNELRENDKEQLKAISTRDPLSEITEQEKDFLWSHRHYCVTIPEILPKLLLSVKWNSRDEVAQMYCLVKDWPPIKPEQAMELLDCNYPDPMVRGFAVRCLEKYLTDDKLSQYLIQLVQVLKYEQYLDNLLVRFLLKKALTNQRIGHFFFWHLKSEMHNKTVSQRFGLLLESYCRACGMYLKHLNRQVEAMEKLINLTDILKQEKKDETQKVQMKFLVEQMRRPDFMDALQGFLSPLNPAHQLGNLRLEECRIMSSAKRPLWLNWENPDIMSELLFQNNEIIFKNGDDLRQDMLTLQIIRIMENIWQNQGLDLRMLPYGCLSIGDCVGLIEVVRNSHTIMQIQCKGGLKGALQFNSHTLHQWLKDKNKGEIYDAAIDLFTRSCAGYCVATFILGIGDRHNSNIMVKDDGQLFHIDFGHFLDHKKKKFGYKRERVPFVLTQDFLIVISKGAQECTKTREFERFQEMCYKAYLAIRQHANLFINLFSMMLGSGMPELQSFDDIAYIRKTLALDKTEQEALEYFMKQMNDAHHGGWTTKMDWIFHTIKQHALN
Chain of PIK3Cγ_h (P48736 whole entry): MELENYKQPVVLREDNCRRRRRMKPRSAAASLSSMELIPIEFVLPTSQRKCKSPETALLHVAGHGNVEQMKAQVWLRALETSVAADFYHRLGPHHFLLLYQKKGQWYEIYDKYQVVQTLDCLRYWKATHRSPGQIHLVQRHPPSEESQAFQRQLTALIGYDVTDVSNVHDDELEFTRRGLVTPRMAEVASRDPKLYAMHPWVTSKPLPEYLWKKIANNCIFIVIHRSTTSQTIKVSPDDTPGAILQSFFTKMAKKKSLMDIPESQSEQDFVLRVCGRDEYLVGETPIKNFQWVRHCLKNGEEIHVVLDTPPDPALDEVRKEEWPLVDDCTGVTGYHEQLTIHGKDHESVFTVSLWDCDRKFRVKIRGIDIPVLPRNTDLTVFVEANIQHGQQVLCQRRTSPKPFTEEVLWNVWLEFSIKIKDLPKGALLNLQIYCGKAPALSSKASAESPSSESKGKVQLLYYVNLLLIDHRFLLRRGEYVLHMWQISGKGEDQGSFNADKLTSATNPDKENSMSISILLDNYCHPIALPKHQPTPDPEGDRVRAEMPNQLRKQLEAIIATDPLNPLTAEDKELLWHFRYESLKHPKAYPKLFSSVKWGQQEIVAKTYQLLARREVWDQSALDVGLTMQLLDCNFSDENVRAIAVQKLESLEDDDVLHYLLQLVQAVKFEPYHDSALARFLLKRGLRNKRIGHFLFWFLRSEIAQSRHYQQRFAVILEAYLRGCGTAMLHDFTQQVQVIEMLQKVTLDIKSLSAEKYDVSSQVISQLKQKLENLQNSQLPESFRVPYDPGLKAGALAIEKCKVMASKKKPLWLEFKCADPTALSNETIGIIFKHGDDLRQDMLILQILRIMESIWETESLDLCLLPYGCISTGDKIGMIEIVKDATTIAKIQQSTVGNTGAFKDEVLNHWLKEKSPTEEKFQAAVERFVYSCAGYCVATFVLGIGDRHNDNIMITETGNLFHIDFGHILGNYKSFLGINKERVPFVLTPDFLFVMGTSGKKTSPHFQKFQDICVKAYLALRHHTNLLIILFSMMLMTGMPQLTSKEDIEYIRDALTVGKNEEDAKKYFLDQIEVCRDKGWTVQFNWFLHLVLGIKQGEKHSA
Chain of PIK3Cδ_h (O00329 whole entry): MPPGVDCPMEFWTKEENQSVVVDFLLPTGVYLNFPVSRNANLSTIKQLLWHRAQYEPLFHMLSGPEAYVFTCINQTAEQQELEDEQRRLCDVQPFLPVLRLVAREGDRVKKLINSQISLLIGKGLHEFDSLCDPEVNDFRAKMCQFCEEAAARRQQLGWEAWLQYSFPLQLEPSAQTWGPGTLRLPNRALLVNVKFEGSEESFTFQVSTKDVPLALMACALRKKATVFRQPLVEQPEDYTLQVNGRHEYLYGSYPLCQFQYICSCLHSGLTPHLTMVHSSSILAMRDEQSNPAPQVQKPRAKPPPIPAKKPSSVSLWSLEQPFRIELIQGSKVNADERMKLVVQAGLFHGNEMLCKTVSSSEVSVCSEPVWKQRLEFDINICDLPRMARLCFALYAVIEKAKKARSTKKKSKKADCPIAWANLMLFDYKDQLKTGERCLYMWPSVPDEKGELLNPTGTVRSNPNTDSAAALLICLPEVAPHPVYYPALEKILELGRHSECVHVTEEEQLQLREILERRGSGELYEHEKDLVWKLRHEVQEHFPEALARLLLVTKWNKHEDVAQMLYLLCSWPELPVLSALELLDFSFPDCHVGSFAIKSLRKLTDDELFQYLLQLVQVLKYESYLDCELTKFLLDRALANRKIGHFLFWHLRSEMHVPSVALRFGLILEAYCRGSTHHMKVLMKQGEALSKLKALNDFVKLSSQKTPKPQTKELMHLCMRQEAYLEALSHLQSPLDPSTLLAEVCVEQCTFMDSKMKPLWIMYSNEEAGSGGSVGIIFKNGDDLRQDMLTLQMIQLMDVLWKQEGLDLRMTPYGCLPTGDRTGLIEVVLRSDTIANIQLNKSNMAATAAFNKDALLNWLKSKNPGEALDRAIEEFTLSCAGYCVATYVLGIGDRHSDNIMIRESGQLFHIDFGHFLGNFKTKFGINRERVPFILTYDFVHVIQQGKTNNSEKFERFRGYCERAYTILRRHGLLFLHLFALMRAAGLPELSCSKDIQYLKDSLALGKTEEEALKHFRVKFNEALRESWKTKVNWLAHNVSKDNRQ

Row | SMILES | Kd (PIK3Cα_h) [nM] | Kd (PIK3Cβ_h) [nM] | Kd (PIK3Cδ_h) [nM] | Kd (PIK3Cγ_h) [nM] | Kd (MTOR_h) [nM] | IC50 ([1]; Homo sapiens, PC-3, 1 h) [nM] | IC50 ([2]; Homo sapiens, PC-3, 1 h) [nM] | IC50 [1] [nM] | IC50 [2] [nM]
1 | Cc1c(Cc2c(C(C)O)nc3c(-c4ncc[nH]4)cc(N4CCOCC4)nn23)cccc1C(F)(F)F (stereo not shown) [Compound 31] | 2290 | 2.5 | 71 | 17000 | > 10000 | 46 | 22 |  | 
2 | Cc1cccc(Nc2c(C)nc3c(N)cc(N4CCOCC4)nn23)c1C1CCNCC1 [Compound 60] | 7240 | 0.2 | 16 | 9770 | > 30200 | 219 | ~148 |  | 
3 | Cc1nc2c(-c3c[nH]cn3)cc(N3CCOCC3)nn2c1Nc1cccc(F)c1C [Compound 50] | 537 | 1.3 | 33 | 1260 | 776 | 60 | 38 |  | 
4 | Cc1nc2c(N)cc(N3CCOCC3)nn2c1Nc1cccc(C(F)(F)F)c1C [Compound 33] | 5130 | 6 | 171 | 11400 | 20300 | 12 | 17 |  | 
5 | Cc1c(Cc2c(CCO)nc3c(-c4c[nH]cn4)cc(N4CCOCC4)nn23)cccc1C(F)(F)F [Compound 24] | 1110 | 3 | 147 | 3360 | 2490 | 43 | 37 |  | 
6 | CC(CO)NCc1c(F)cccc1Cc1c(CO)nc2c(N)cc(N3CCOCC3)nn12 (stereo not shown) [Compound 102] | > 30200 | 141 | 1510 | > 30200 | > 30200 | > 513 | > 513 |  | 
7 | Cc1nc2c(N)cc(N3CCOCC3)nn2c1Nc1cccc(C(F)(F)F)c1CNC(C)CO (stereo not shown) [Compound 55] | 1120 | 0.9 | 9 | 12600 | > 30200 | 10 | 7 |  | 
8 | Cc1nc2c(N)cc(N3CCOCC3)nn2c1Nc1cccc(C(F)(F)F)c1CN1CCN(C)CC1 [Compound 58] | 4270 | 0.4 | 20 | 12300 | 21400 | 21 | 17 |  | 
9 | Cc1c(Cc2c(CO)nc3c(C(N)=O)cc(N4CCOCC4)nn23)cccc1C(F)(F)F [Compound 15] | 1100 | 7 | 479 | 2000 | > 30200 | ~91 | ~43 |  | 

Second part, the compound after the results:

Row | Kd (PIK3Cα_h) [nM] | Kd (PIK3Cβ_h) [nM] | Kd (PIK3Cδ_h) [nM] | Kd (PIK3Cγ_h) [nM] | Kd (MTOR_h) [nM] | IC50 ([1]; Homo sapiens, PC-3, 1 h) [nM] | IC50 ([2]; Homo sapiens, PC-3, 1 h) [nM] | IC50 [1] [nM] | IC50 [2] [nM] | SMILES
10 | 16600 | 2.4 | 513 | > 30200 | 23400 | ~34 | 74 |  |  | Cc1c(Cc2c(CN(C)CCS(C)(=O)=O)nc3c(N)cc(N4CCOCC4)nn23)cccc1C(F)(F)F [Compound 1]
11 | 32400 | 1.3 | 263 | > 30200 | 25100 | 380 | ~123 |  |  | Cc1c(Cc2c(COC(=O)C(N)C(C)C)nc3c(N)cc(N4CCOCC4)nn23)cccc1C(F)(F)F (stereo not shown) [Compound 82]
12 | > 9180 | 1.3 | 207 | > 8880 | > 5690 |  |  | ~63 | ~38 | Cc1c(Cc2c(CO)nc3c(N)cc(N4CCOCC4)nn23)cccc1C(F)(F)F [Compound 14]
13 | > 10000 | 10 | > 3310 | > 3310 | > 30200 | 123 | 155 |  |  | Cc1c(Cc2c(CF)nc3c(C(N)=O)cc(N4CCOCC4)nn23)cccc1C(F)(F)F [Compound 16]
